This note sets out measurements from US12128035B2, “Activating pyruvate kinase R” (Novo Nordisk Health Care AG, priority 2021, dated 2024).

For series [1], the system named is 2,3-DPG blood levels. The series can be described thus: Phase 1: blood 2,3-DPG in SCD patients. The format is in vivo, human. The procedure: (§1) In this study, SAD/MAD cohorts are randomized (3 to 1) to receive Compound 1 or placebo (P). Compound 1 was evaluated first in 4 healthy SAD cohorts and 4 healthy MAD (14-day dosing period) cohorts. Based on the safety, and PK/PD profile from HS, Compound 1 is then evaluated in 1 SCD SAD cohort and 2 SCD MAD cohorts. Specifically, based on the safety and pharmacokinetic/pharmacodynamics (PK/PD) profile in healthy volunteer studies, Compound 1 is evaluated in patients (pts) with SCD, first in a single dose (SD or SAD) cohort and then in multiple-dose (MD or MAD) cohorts (14-day and 12-week). Safety assessments include AEs, vital signs, ECGs and laboratory parameters. PK/PD blood sampling was performed on Day 1 (SAD/MAD) and Day 14 (MAD) and up to 72 h after the last dose and at the end-of-study visit. PD parameters included 2,3-DPG, ATP, and p50 in all cohorts with additional PD studies (including oxygen scan) performed only in the SCD cohorts. PD parameters included 2,3-DPG, ATP, p50, RBC deformability with controlled deoxygenation and reoxygenation (Lorrca® oxygen scan) and varying osmolality (Lorrca® osmoscan)). To maintain study blind, pt identifiers were removed when needed.
The onset of the increase in ATP blood levels after a single 700 mg dose of Compound 1 was faster in SCD patients than in healthy volunteers, while the onset of the decrease in 2,3-DPG blood levels was slower.
The following procedures are employed for the analysis of ATP and 2,3-DPG in human whole blood K2EDTA using a protein precipitation extraction procedure and analysis by LC-MS/MS.
The following procedures are used for sample extraction prior to analysis via LC-MS/MS. 15.0 μL of the calibration standards, quality controls, matrix blanks, and samples are aliquoted into a 96-well plate. 50.0 μL of the internal standard spiking solution is added to all samples on the plate, with the exception of the matrix blank samples; 50.0 μL of water is added to the matrix blank samples. Subsequently, 150 μL of water is added to all samples on the plate. The plate is then covered and agitated by vortex at high speed for ten minutes, after which 750 μL of methanol is added to all samples on the plate. The plate is covered and agitated by vortex for approximately 1 minute. The plate is then centrifuged at approximately 3500 RPM at approximately 4° C. for five minutes. After centrifugation, a liquid handler is used to transfer 50 μL of each sample to a new 96-well plate, and 200 μL of acetonitrile is added to all samples on the plate. The newly prepared plate is covered and agitated by vortex for approximately 1 minute. The plate is then centrifuged at approximately 3500 RPM at approximately 4° C. for 2 minutes.

The nature of series [2]: Log D7.4. The format is physicochemical. The settings on record: pH 7.4. The source says: [drawing 2] is a selective, orally bioavailable PKR Activating Compound that decreases 2,3-DPG, increases ATP, and has anti-sickling effects in disease models with a wide therapeutic margin relative to preclinical toxicity. Compound 1 is a potent activator of PKR and a multi-modal metabolic modulator of RBCs. Activation of PKR simultaneously reduces 2,3-DPG concentrations, which increases hemoglobin-oxygen affinity and decreases sickling, while also increasing intracellular ATP, which improves RBC health and reduces hemolysis, or RBC death. Compound 1 is a BCS class II compound with poor water solubility and high permeability.

Series [3] relates to sickle RBCs. The series can be described thus: Phase 1: Lorrca Osmoscan in SCD patients. The format is in vivo, human. The procedure:
as §1
Functional evaluation of RBCs was performed using Laser-Optical Rotational Red Cell Analyzer (Lorrca®) technology (RR Mechatronics, Zwaag, The Netherlands). Osmoscan was performed for healthy subjects, and both Oxygenscan and Osmoscan analyses were undertaken for the patients with SCD. In brief, the Oxygenscan allows for the measurement and visualisation of RBC elongation in shear stress in an oxygen gradient, during deoxygenation and re-oxygenation, expressed as the elongation index (EI). […] Evaluated Osmoscan parameters included: EImax; Omin (osmolality at ELmax; hypotonic region), which corresponds to the value of the hypotonic osmolality at which 50% of the cells hemolyse in an osmotic fragility assay and provides information on the initial surface-to-volume ratio of the RBCs; and Ohyper (osmolality corresponding to 50% of the EImax; hypertonic region), which correlates with the initial intracellular viscosity of the cell sample. […]
The effects of a single dose of Compound 1 (700 mg) versus placebo on oxygen scan, oxygen affinity (p50), and osmoscan in SCD patients were evaluated. […] In order to measure the impact of Compound 1 on this critical function, the effect of Compound 1 compared to placebo on the deformability of SCD RBCs across an osmolality gradient was evaluated. […]

Series [4] deals with H295R adreno-cortical carcinoma cell line. The series is described as follows: Steroid modulation screen in vitro. The series is classed as cell-based. Particulars: tested at 200 to 0.0002 μM; only at top concentration. How it is done: To assess potential effects on steroidogenesis, Compound 1 was screened for steroid modulation in vitro using the H295R adreno-cortical carcinoma cell line (at 200 to 0.0002 μM) and in an assay to monitor cell viability (MTT Kit). Compound 1 indicated steroid modulation potential (% over vehicle) only at 200 μM, the top concentration tested, with 100% cellular viability at concentrations ≤20 μM (90% viability at 200 μM).

`O=C([C@H](CO)c1ccccc1)N1CC2=C(C1)CN(S(=O)(=O)c1cnc3c(c1)OCCO3)C2` (single isomer, unassigned) [Compound 1]: the “mean percentage change in 2,3-DPG blood levels” value is given as 0% in series [1] (SCD 300 mg QD, Day 1, 0 h after first daily dose); −23% in series [1] (SCD 300 mg QD, Day 1, 24 h after first daily dose); −25% in series [1] (SCD 300 mg QD, Day 14, 0 h after first daily dose); −29% in series [1] (SCD 300 mg QD, Day 14, 6 h after first daily dose); −29% in series [1] (SCD 300 mg QD, Day 14, 24 h after first daily dose); −22% in series [1] (SCD 300 mg QD, Day 14, 48 h after first daily dose). Moreover, the “mean percentage change in 2,3-DPG blood levels” value in series [1] (SCD single 700 mg, 0 h after dose) was 0%; in series [1] (SCD single 700 mg, 6 h after dose), −16%; in series [1] (SCD single 700 mg, 24 h after dose), −31%; in series [1] (SCD single 700 mg, 48 h after dose), −21%; in series [1] (SCD single 700 mg, 72 h after dose), −8%. The “lag of maximum decrease in blood 2,3-DPG behind maximum plasma concentration” value in series [1] (SCD single 700 mg, FIG. 54B) is “about 24 hours”. For the same molecule, in series [1] (SCD, 24 hours after single 700-mg dose, FIG. 46A), the “decrease in 2,3-DPG blood concentrations” value is listed as 26%. Further, in series [2], the “Log D7.4” value was determined as 1.09. Further, the “EImax (Osmoscan)” value in series [3] (SCD single 700 mg, Post-dose (24 hours), median (range), pre-dose 0.483 (0.46, 0.57)) is 0.478 (0.46, 0.57). The “Omin (Osmoscan)” value in series [3] (SCD single 700 mg, Post-dose (24 hours), median (range), pre-dose 108 (105, 121)) is 117 (106, 124). For the same molecule, in series [3] (SCD single 700 mg, Post-dose (24 hours), median (range), pre-dose 380 (371, 399)), the “Ohyper (Osmoscan)” value was 400 (371, 412). In addition, the “time to return to baseline of Oxygenscan/Osmoscan effects” value in series [3] (SCD, after the single 700 mg dose) is on record as 3 to 7 days. Also, the “concentration indicating steroid modulation potential (% over vehicle)” value in series [4] worked out at 200 µM.
